The values below come from PubChem BioAssay AID330 (DTP/NCI, 2004).

For this assay, the system named is P388 leukemia ip, CD2F1 mice, survival T/C. The assay is described as follows: NCI In Vivo Anticancer Drug Screen. Data for tumor model P388 Leukemia (intraperitoneal) in CD2F1 (CDF1) mice. Particulars: endpoint: median survival time, higher = longer survival. In outline:
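Mice carrying the transplanted tumor received test compound or vehicle. Survival was recorded in each group, and the value is the treated-group measurement divided by that of the vehicle-treated control group.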

[1] abbreviates: dose: 100.0 mg/kg/injection, schedule: Q01DX009 (ip), vehicle: saline.
[2] abbreviates: dose: 200.0 mg/kg/injection, schedule: Q01DX009 (ip), vehicle: saline.
Where [3] appears, read: dose: 400.0 mg/kg/injection, schedule: Q01DX009 (ip), vehicle: saline.
Setting [4] is: dose: 25.0 mg/kg/injection, schedule: Q01DX005 (ip), vehicle: Klucel (hydroxypropylcellulose) (HPC).
Setting [5] is: dose: 50.0 mg/kg/injection, schedule: Q01DX005 (ip), vehicle: Klucel (hydroxypropylcellulose) (HPC).
Setting [6] is: dose: 12.5 mg/kg/injection, schedule: Q01DX009 (ip), vehicle: saline with Tween-80.
[7] abbreviates: dose: 25.0 mg/kg/injection, schedule: Q01DX009 (ip), vehicle: saline with Tween-80.
Where [8] appears, read: dose: 12.5 mg/kg/injection, schedule: Q01DX009 (ip), vehicle: saline.
Setting [9] is: dose: 25.0 mg/kg/injection, schedule: Q01DX009 (ip), vehicle: saline.
The mark [10] stands for this setting: dose: 50.0 mg/kg/injection, schedule: Q01DX009 (ip), vehicle: saline.
The mark [11] stands for this setting: dose: 100.0 mg/kg/injection, schedule: Q04DX002 (ip), vehicle: Klucel (hydroxypropylcellulose) (HPC).
[12] abbreviates: dose: 400.0 mg/kg/injection, schedule: Q04DX002 (ip), vehicle: Klucel (hydroxypropylcellulose) (HPC).
Where [13] appears, read: dose: 100.0 mg/kg/injection, schedule: Q01DX001 (ip), vehicle: saline with Tween-80.
The mark [14] stands for this setting: dose: 200.0 mg/kg/injection, schedule: Q01DX001 (ip), vehicle: saline with Tween-80.
Setting [15] is: dose: 100.0 mg/kg/injection, schedule: Q04DX003 (ip), vehicle: Klucel (hydroxypropylcellulose) (HPC).
Setting [16] is: dose: 200.0 mg/kg/injection, schedule: Q04DX003 (ip), vehicle: Klucel (hydroxypropylcellulose) (HPC).
Setting [17] is: dose: 400.0 mg/kg/injection, schedule: Q04DX003 (ip), vehicle: Klucel (hydroxypropylcellulose) (HPC).
Setting [18] is: dose: 100.0 mg/kg/injection, schedule: Q01DX005 (ip), vehicle: Klucel (hydroxypropylcellulose) (HPC).
The mark [19] stands for this setting: dose: 200.0 mg/kg/injection, schedule: Q01DX005 (ip), vehicle: Klucel (hydroxypropylcellulose) (HPC).
The mark [20] stands for this setting: dose: 50.0 mg/kg/injection, schedule: Q01DX009 (ip), vehicle: saline with Tween-80.
Where [21] appears, read: dose: 100.0 mg/kg/injection, schedule: Q01DX009 (ip), vehicle: saline with Tween-80.
The mark [22] stands for this setting: dose: 200.0 mg/kg/injection, schedule: Q01DX009 (ip), vehicle: saline with Tween-80.
The mark [23] stands for this setting: dose: 100.0 mg/kg/injection, schedule: Q04DX003 (ip), vehicle: saline with Tween-80.

Values joined by “and” are separate entries in the source; they are usually repeats but may differ in a detail not shown here. Equal values may be shown once. Inconclusive results and toxic doses are left out.

Take `N#CCCCCCCCCCCC(=O)O`: the T/C under setting [1] was 93 % of control, the T/C under setting [2] is 91 % of control and the T/C under setting [3] is 94 % of control.

Turning to `O=NN(CCCl)C(=O)NCCSSCCNC(=O)N(CCCl)N=O` (tested in a mixture with another compound), the T/C by setting is: (dose: 12.5 mg/kg/injection, schedule: Q01DX005 (ip), vehicle: Klucel (hydroxypropylcellulose) (HPC)) 179 % of control and 211 % of control; under setting [4], 224 % of control; under setting [5], 120 % of control and 201 % of control.

Turning to `CC1(O)c2ccccc2[P+](C)(c2ccccc2)c2ccccc21` (centres undefined), the T/C reads like this: under setting [6], 111 % of control; under setting [7], 109 % of control.

Regarding `S=c1[nH]c2ccc(Cl)cc2s1`, the T/C is 98 % of control (dose: 50.0 mg/kg/injection, schedule: Q01DX009 (ip), vehicle: Klucel (hydroxypropylcellulose) (HPC)); 101 % of control (dose: 100.0 mg/kg/injection, schedule: Q01DX009 (ip), vehicle: Klucel (hydroxypropylcellulose) (HPC)); 90 % of control (dose: 200.0 mg/kg/injection, schedule: Q01DX009 (ip), vehicle: Klucel (hydroxypropylcellulose) (HPC)); 95 % of control (dose: 400.0 mg/kg/injection, schedule: Q01DX009 (ip), vehicle: Klucel (hydroxypropylcellulose) (HPC)).

With `O=C(O)c1cc(Cl)nnc1Cl`, the T/C by setting is: (dose: 50.0 mg/kg/injection, schedule: Q01DX005 (ip), vehicle: saline) 109 % of control; (dose: 100.0 mg/kg/injection, schedule: Q01DX005 (ip), vehicle: saline) 100 % of control; (dose: 200.0 mg/kg/injection, schedule: Q01DX005 (ip), vehicle: saline) 104 % of control.

Turning to `CCOC(=O)c1conc1C`, the T/C reads like this: under setting [8], 112 % of control; under setting [9], 106 % of control; under setting [10], 101 % of control and 103 % of control.

For the molecule `Cn1c(=O)c2nc(-c3ccccc3)nnc2n(CCO)c1=O`, the T/C by setting is: under setting [11], 105 % of control; (dose: 200.0 mg/kg/injection, schedule: Q04DX002 (ip), vehicle: Klucel (hydroxypropylcellulose) (HPC)) 106 % of control; under setting [12], 110 % of control.

For the molecule `[NH-]CC[N-]CCO.[NH-]CC[N-]CCO.[NH-]CC[N-]CCO.[Ni]`, the T/C was 93 % of control (dose: 6.25 mg/kg/injection, schedule: Q01DX005 (ip), vehicle: saline); 98 % of control (dose: 12.5 mg/kg/injection, schedule: Q01DX005 (ip), vehicle: saline); 107 % of control (dose: 25.0 mg/kg/injection, schedule: Q01DX005 (ip), vehicle: saline).

As to `CCCCC(CC)OC(=O)c1cccc(C(=O)O)c1` (centres undefined), the T/C runs as follows: under setting [13], 115 % of control; under setting [14], 97 % of control.

As for `O=C1NC(=O)C2(OC3c4ccccc4C=CN3C3=C2C(=O)CCC3)C(=O)N1` (centres undefined), the T/C was 94 % of control (dose: 50.0 mg/kg/injection, schedule: Q01DX005 (ip), vehicle: saline with Tween-80); 94 % of control (dose: 100.0 mg/kg/injection, schedule: Q01DX005 (ip), vehicle: saline with Tween-80); 92 % of control (dose: 200.0 mg/kg/injection, schedule: Q01DX005 (ip), vehicle: saline with Tween-80).

`Cc1ccnc(NS(=O)(=O)c2ccc(Nc3c4ccccc4nc4cc(Cl)ccc34)cc2)n1`: the T/C under setting [15] was 104 % of control and 114 % of control; the T/C under setting [16] was 106 % of control and 118 % of control; the T/C under setting [17] was 124 % of control.

Take `CN1C=C/C(=C/[N+](=O)[O-])N(C)C1=O`: the T/C was 99 % of control under setting [4], 105 % of control under setting [5], 100 % of control under setting [18] and 112 % of control under setting [19].

Consider `CC1CN1CCS(=O)(=O)CCN1CC1C` (centres undefined), for which the T/C is, setting by setting: under setting [20], 95 % of control; under setting [21], 104 % of control.

As to `CCCN1C(=O)CC(=O)N(CCC)P1(=O)OCC`, the T/C (dose: 100.0 mg/kg/injection, schedule: Q04DX002 (ip), vehicle: saline) was 101 % of control; the T/C (dose: 200.0 mg/kg/injection, schedule: Q04DX002 (ip), vehicle: saline) was 108 % of control; the T/C (dose: 400.0 mg/kg/injection, schedule: Q04DX002 (ip), vehicle: saline) was 101 % of control.

Take `OC1N2CCSC2=NC1(c1ccccc1)c1ccccc1` (centres undefined): the T/C was 107 % of control (dose: 18.75 mg/kg/injection, schedule: Q04DX003 (ip), vehicle: Klucel (hydroxypropylcellulose) (HPC)); 95 % of control (dose: 37.5 mg/kg/injection, schedule: Q04DX003 (ip), vehicle: Klucel (hydroxypropylcellulose) (HPC)); 100 % of control (dose: 75.0 mg/kg/injection, schedule: Q04DX003 (ip), vehicle: Klucel (hydroxypropylcellulose) (HPC)); 110 % of control (dose: 150.0 mg/kg/injection, schedule: Q04DX003 (ip), vehicle: Klucel (hydroxypropylcellulose) (HPC)); 93 % of control (dose: 300.0 mg/kg/injection, schedule: Q04DX003 (ip), vehicle: Klucel (hydroxypropylcellulose) (HPC)).

On to `CCn1c(C)cc(=NC(=O)c2ccccc2O)n1-c1ccccc1`, for which the T/C reads like this: under setting [13], 103 % of control; under setting [14], 106 % of control; (dose: 400.0 mg/kg/injection, schedule: Q01DX001 (ip), vehicle: saline with Tween-80) 102 % of control.

Turning to `CCN(CC)c1nc(N)nc(N)n1`, the T/C (dose: 6.25 mg/kg/injection, schedule: Q01DX009 (ip), vehicle: saline) is 106 % of control; the T/C under setting [6] was 107 % of control; the T/C under setting [8] is 103 % of control; the T/C under setting [7] was 103 % of control; the T/C under setting [9] is 107 % of control and 94 % of control; the T/C under setting [20] was 107 % of control and 94 % of control. Moreover, the T/C is, setting by setting: under setting [10], 100 % of control; under setting [21], 101 % of control; under setting [1], 97 % of control; under setting [22], 88 % of control.

With `CC(C)N1CSC(=S)NCCNC(=S)SC1`, the T/C is 101 % of control under setting [5], 110 % of control under setting [18] and 110 % of control under setting [19].

Turning to `Cc1nc2c([N+](=O)[O-])c(NCCO)c([N+](=O)[O-])cc2[nH]1`, the T/C is 94 % of control under setting [23]; 92 % of control (dose: 200.0 mg/kg/injection, schedule: Q04DX003 (ip), vehicle: saline with Tween-80); 103 % of control (dose: 400.0 mg/kg/injection, schedule: Q04DX003 (ip), vehicle: saline with Tween-80).

With `c1ccc2c(c1)CN1Cc3ccccc3C2C1`, the T/C under setting [20] is 99 % of control, the T/C under setting [21] is 93 % of control and the T/C under setting [22] was 91 % of control.

For the molecule `CCOP(=O)(OCC)C(C)OC` (centres undefined), the T/C by setting is: under setting [10], 100 % of control; under setting [1], 100 % of control; under setting [2], 106 % of control; under setting [3], 100 % of control.

In the case of `Nc1cccc2ccccc12`, the T/C under setting [23] is 94 % of control.

For `CC(=O)OCCC/C(=C/c1cc2ccccc2c2ccccc12)[N+](=O)[O-]`, the T/C is, setting by setting: under setting [15], 104 % of control; under setting [16], 109 % of control; under setting [17], 109 % of control.

In the case of `Cn1c(=O)[nH]c(=O)c2nc(-c3ccccc3)cnc21`, the T/C reads like this: under setting [11], 105 % of control; under setting [12], 86 % of control.

As to `O=S(=O)(O)SCCN1CCOCC1`, the T/C runs as follows: under setting [1], 90 % of control; under setting [2], 115 % of control; under setting [3], 110 % of control.

Regarding `CCCCCCCCCCCCCCCCCCOC(=O)Cc1ccc(N(CCCl)CCCl)cc1`, the T/C by setting is: (dose: 45.0 mg/kg/injection, schedule: Q01DX009 (ip), vehicle: saline with Tween-80) 168 % of control; (dose: 90.0 mg/kg/injection, schedule: Q01DX009 (ip), vehicle: saline with Tween-80) 163 % of control; (dose: 180.0 mg/kg/injection, schedule: Q01DX009 (ip), vehicle: saline with Tween-80) 150 % of control.
